Experimental data published in patent US4734420A, “Anti-hypertensive agents” (priority 1980, dated 1988).

Assays:
ACE [1] = conditions: oral, most patients; cited from earlier work
Human urinary ACE = Human urinary ACE (Homo sapiens, UniProt P12821); experiment: biochemical; conditions: read-out: I50 value
Description: The role of ACE in the pathogenesis of hypertension has prompted a search for inhibitors of the enzyme that could act as antihypertensive drugs. See for example U.S. Pat. Nos. 3,891,616, 3,947,575, 4,052,511 and 4,053,651. […]. No. 4,046,889 to Ondetti et al., issued Sept. 6, 1977, and in scientific articles by Cushman, D. W. et al., Biochemistry 16, 5484 (1977), and by Ondetti, M. et al., Science 196, 441 (1977). […]. These factors include the source of enzyme, its purity, the substrate used and its concentration, and the composition of the assay buffer. All I50 data reported herein have been performed with the same assay system and same enzyme (human urinary ACE) and with an approximately 1/2 Km level of substrate and are therefore internally consistent. Discrepancies with data obtained by other workers may be observed. Indeed such discrepancies do exist in the literature, for unknown reasons. See, for example, the I50 values for BPP9a reported by Cushman, D. W., et al., Experientia 29, 1032 (1973) and by Dorer, F. E., et al., Biochim. Biophys. Acta 429, 220 (1976).
The inhibitory potency of N^α -[3-(L-α-glutamylthio)-2-D-methyl-propanoyl]-L-proline in vitro was measured in the following assay. […] The enzyme was assayed in 0.05M Hepes buffer, pH 8.0 containing 0.1M NaCl and 0.75M Na2 SO4. […]

ACE [2] = conditions: statement of belief; cited from earlier work

Chain of Human urinary ACE (P12821 30-1232 limits assumed): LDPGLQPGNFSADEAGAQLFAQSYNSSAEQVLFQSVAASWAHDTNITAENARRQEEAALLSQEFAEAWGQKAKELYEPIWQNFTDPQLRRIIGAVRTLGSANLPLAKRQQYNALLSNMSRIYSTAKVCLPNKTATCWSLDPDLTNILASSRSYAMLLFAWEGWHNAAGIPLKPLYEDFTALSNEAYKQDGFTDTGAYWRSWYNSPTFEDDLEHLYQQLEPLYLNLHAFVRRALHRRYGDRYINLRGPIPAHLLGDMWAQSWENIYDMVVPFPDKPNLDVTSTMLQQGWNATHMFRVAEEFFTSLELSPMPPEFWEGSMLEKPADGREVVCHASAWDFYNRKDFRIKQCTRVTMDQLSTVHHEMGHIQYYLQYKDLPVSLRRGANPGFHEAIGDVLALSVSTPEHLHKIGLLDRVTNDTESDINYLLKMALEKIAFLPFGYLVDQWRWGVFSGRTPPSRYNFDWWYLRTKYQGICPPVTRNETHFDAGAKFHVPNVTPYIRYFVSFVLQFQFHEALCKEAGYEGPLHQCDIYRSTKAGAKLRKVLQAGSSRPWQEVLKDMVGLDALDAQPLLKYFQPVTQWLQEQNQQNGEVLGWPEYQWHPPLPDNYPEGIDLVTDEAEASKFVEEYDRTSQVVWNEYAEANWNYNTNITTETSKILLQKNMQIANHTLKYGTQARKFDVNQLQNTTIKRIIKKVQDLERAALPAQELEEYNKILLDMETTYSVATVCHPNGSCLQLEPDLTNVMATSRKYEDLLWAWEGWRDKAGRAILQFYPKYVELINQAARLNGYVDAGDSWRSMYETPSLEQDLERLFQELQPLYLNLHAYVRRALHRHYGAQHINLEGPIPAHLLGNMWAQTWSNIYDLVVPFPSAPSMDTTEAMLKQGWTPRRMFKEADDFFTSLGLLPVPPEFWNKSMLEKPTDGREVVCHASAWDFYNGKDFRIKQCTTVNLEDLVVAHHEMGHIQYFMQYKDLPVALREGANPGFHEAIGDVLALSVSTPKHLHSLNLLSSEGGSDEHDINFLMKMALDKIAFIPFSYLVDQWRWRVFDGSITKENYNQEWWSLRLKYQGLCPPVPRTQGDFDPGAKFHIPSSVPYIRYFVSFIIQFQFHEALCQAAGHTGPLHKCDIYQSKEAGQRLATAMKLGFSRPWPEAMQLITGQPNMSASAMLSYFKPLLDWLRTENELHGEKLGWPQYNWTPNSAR

## C[C@H](CS)C(=O)N1CCCC1C(=O)O (stereo in doubt) [SQ14225, D-3-mercapto-2-methylpropanoyl-L-proline]
ACE [1]
  stability in normal gastric and intestinal environments: sufficiently stable in the normal gastric and intestinal environments of most patients

## C[C@H](CSC(=O)[C@@H](N)CCC(=O)O)C(=O)N1CCC[C@H]1C(=O)O [N^α -[3-(L-α-glutamylthio)-2-D-methyl-propanoyl]-L-proline]
Human urinary ACE
  IC50: 2.1 nM

## C[C@H](CSSC[C@@H](C)C(=O)N1CCC[C@H]1C(=O)O)C(=O)N1CCC[C@H]1C(=O)O [disulfide]
ACE [2]
  inhibitory activity of disulfide (dimer of SQ14225): largely inactive as an inhibitor
